Results as given in ChEMBL document CHEMBL4308841, “Synthesis, in vitro antiproliferative activity, and kinase inhibitory effects of pyrazole-containing diarylureas and diarylamides” (Eur J Med Chem, 2018).

Experiments:
COLO 205 [1] = assay: Growth inhibition of human COLO205 cells assessed as cell growth at 100 uM incubated for 48 hrs by sulforhodamine B assay relative to control; type: functional; conditions: COLO 205, 48 h, read-out: Activity
MOLT-4 = assay: Growth inhibition of human MOLT4 cells assessed as cell growth at 1 uM incubated for 48 hrs by sulforhodamine B assay relative to control; type: functional; conditions: MOLT-4, 48 h, read-out: Activity
CAKI-1 = assay: Growth inhibition of human Caki1 cells assessed as cell growth at 100 uM incubated for 48 hrs by sulforhodamine B assay relative to control; type: functional; conditions: CAKI-1, 48 h, read-out: Activity
OVCAR-8 = assay: Growth inhibition of human OVCAR8 cells assessed as cell growth at 100 uM incubated for 48 hrs by sulforhodamine B assay relative to control; type: functional; conditions: OVCAR-8, 48 h, read-out: Activity
A498 = assay: Growth inhibition of human A498 cells assessed as cell growth at 0.01 uM incubated for 48 hrs by sulforhodamine B assay relative to control; type: functional; conditions: A498, 48 h, read-out: Activity
COLO 205 [2] = assay: Growth inhibition of human COLO205 cells incubated for 48 hrs by sulforhodamine B assay; type: functional, cell-based; conditions: COLO 205, 48 h
SN12C = assay: Growth inhibition of human SN12C cells incubated for 48 hrs by sulforhodamine B assay; type: functional, cell-based
NCI/ADR-RES = assay: Growth inhibition of human NCI/ADR-RES cells assessed as cell growth at 1 uM incubated for 48 hrs by sulforhodamine B assay relative to control; type: functional; conditions: read-out: Activity
NCI-H460 = assay: Growth inhibition of human NCI-H460 cells assessed as cell growth at 1 uM incubated for 48 hrs by sulforhodamine B assay relative to control; type: functional; conditions: NCI-H460, 48 h, read-out: Activity
SNB-75 = assay: Growth inhibition of human SNB75 cells incubated for 48 hrs by sulforhodamine B assay; type: functional, cell-based; conditions: SNB-75, 48 h
UACC-257 [3] = assay: Growth inhibition of human UACC257 cells assessed as cell growth at 0.01 uM incubated for 48 hrs by sulforhodamine B assay relative to control; type: functional; conditions: UACC-257, 48 h, read-out: Activity
Malme-3M [4] = assay: Growth inhibition of human MALME-3M cells assessed as cell growth at 0.1 uM incubated for 48 hrs by sulforhodamine B assay relative to control; type: functional; conditions: read-out: Activity
ACHN = assay: Growth inhibition of human ACHN cells assessed as cell growth at 1 uM incubated for 48 hrs by sulforhodamine B assay relative to control; type: functional; conditions: read-out: Activity
SK-MEL-2 = assay: Growth inhibition of human SK-MEL-2 cells assessed as cell growth at 0.1 uM incubated for 48 hrs by sulforhodamine B assay relative to control; type: functional; conditions: SK-MEL-2, 48 h, read-out: Activity
SF-295 [5] = assay: Growth inhibition of human SF295 cells incubated for 48 hrs by sulforhodamine B assay; type: functional, cell-based; conditions: SF-295, 48 h
UACC-257 [6] = assay: Growth inhibition of human UACC257 cells assessed as cell growth at 0.1 uM incubated for 48 hrs by sulforhodamine B assay relative to control; type: functional; conditions: UACC-257, 48 h, read-out: Activity
T47D = assay: Growth inhibition of human T47D cells assessed as cell growth at 0.1 uM incubated for 48 hrs by sulforhodamine B assay relative to control; type: functional; conditions: read-out: Activity
RPMI-8226 = assay: Growth inhibition of human RPMI8226 cells assessed as cell growth at 100 uM incubated for 48 hrs by sulforhodamine B assay relative to control; type: functional; conditions: RPMI-8226, 48 h, read-out: Activity
MDA-MB-231 [7] = assay: Growth inhibition of human MDA-MB-231 cells assessed as cell growth at 0.1 uM incubated for 48 hrs by sulforhodamine B assay relative to control; type: functional; conditions: MDA-MB-231, 48 h, read-out: Activity
IGROV-1 = assay: Growth inhibition of human IGROV1 cells incubated for 48 hrs by sulforhodamine B assay; type: functional, cell-based; conditions: IGROV-1, 48 h
SF-295 [8] = assay: Growth inhibition of human SF295 cells assessed as cell growth at 100 uM incubated for 48 hrs by sulforhodamine B assay relative to control; type: functional; conditions: SF-295, 48 h, read-out: Activity
OVCAR-3 = assay: Growth inhibition of human OVCAR3 cells assessed as cell growth at 1 uM incubated for 48 hrs by sulforhodamine B assay relative to control; type: functional; conditions: OVCAR-3, 48 h, read-out: Activity
NCI-H226 = assay: Growth inhibition of human NCI-H226 cells assessed as cell growth at 1 uM incubated for 48 hrs by sulforhodamine B assay relative to control; type: functional; conditions: NCI-H226, 48 h, read-out: Activity
Malme-3M [9] = assay: Growth inhibition of human MALME-3M cells assessed as cell growth at 0.01 uM incubated for 48 hrs by sulforhodamine B assay relative to control; type: functional; conditions: read-out: Activity
SR = assay: Growth inhibition of human SR cells assessed as cell growth at 100 uM incubated for 48 hrs by sulforhodamine B assay relative to control; type: functional; conditions: read-out: Activity
OVCAR-5 [10] = assay: Growth inhibition of human OVCAR5 cells assessed as cell growth at 100 uM incubated for 48 hrs by sulforhodamine B assay relative to control; type: functional; conditions: OVCAR-5, 48 h, read-out: Activity
OVCAR-5 [11] = assay: Growth inhibition of human OVCAR5 cells incubated for 48 hrs by sulforhodamine B assay; type: functional, cell-based; conditions: OVCAR-5, 48 h
MDA-MB-231 [12] = assay: Growth inhibition of human MDA-MB-231 cells assessed as cell growth at 0.01 uM incubated for 48 hrs by sulforhodamine B assay relative to control; type: functional; conditions: MDA-MB-231, 48 h, read-out: Activity
HCT-15 = assay: Growth inhibition of human HCT15 cells assessed as cell growth at 100 uM incubated for 48 hrs by sulforhodamine B assay relative to control; type: functional; conditions: HCT-15, 48 h, read-out: Activity
NCI-H522 = assay: Growth inhibition of human NCI-H522 cells assessed as cell growth at 1 uM incubated for 48 hrs by sulforhodamine B assay relative to control; type: functional; conditions: NCI-H522, 48 h, read-out: Activity
[13] = read-out: LC50 (the source's name)
[14] = read-out: pLC50 (the source's name) (converted)

O=C(Nc1cccc(-n2cc(-c3ccncc3)c(-c3cc(O)cc(Cl)c3)n2)c1)c1ccc(N2CCOCC2)c(C(F)(F)F)c1
growth at 100 µM (COLO 205 [1]): -17%
growth at 1 µM (MOLT-4): 54%
growth at 100 µM (CAKI-1): -32%
growth at 100 µM (OVCAR-8): 17%
growth at 0.01 µM (A498): 97%
GI50 (COLO 205 [2]; read-out: GI50): 1.75 µM
CC50 (COLO 205 [2]; [13]): > 100 µM
TGI (COLO 205 [2]; read-out: TGI): 64.5 µM
GI50 (COLO 205 [2]; read-out: pGI50 (converted)): 17.4 µM
CC50 (COLO 205 [2]; [14]): > 100 µM
TGI (COLO 205 [2]; read-out: pTGI (converted)): 64.6 µM
GI50 (SN12C; read-out: GI50): 6.37 µM
LC50 (SN12C; read-out: LC50): > 100 µM
TGI (SN12C; read-out: TGI): > 100 µM
GI50 (SN12C; read-out: pGI50 (converted)): 6.31 µM
LC50 (SN12C; read-out: pLC50 (converted)): > 100 µM
TGI (SN12C; read-out: pTGI (converted)): > 100 µM
growth at 1 µM (NCI/ADR-RES): 79%
growth at 1 µM (NCI-H460): 44%
GI50 (SNB-75; read-out: GI50): 0.772 µM
CC50 (SNB-75; [13]): > 100 µM
TGI (SNB-75; read-out: TGI): > 100 µM
GI50 (SNB-75; read-out: pGI50 (converted)): 0.724 µM
CC50 (SNB-75; [14]): > 100 µM
TGI (SNB-75; read-out: pTGI (converted)): > 100 µM
growth at 0.01 µM (UACC-257 [3]): 91%
growth at 0.1 µM (Malme-3M [4]): 85%
growth at 1 µM (ACHN): 52%
growth at 0.1 µM (SK-MEL-2): 101%
GI50 (SF-295 [5]; read-out: GI50): 0.514 µM
CC50 (SF-295 [5]; [13]): 25.1 µM
TGI (SF-295 [5]; read-out: TGI): 27.8 µM
GI50 (SF-295 [5]; read-out: pGI50 (converted)): 0.617 µM
CC50 (SF-295 [5]; [14]): 28.2 µM
TGI (SF-295 [5]; read-out: pTGI (converted)): 2.75 µM
growth at 0.1 µM (UACC-257 [6]): 91%
growth at 0.1 µM (T47D): 98%
growth at 100 µM (RPMI-8226): -32%
growth at 0.1 µM (MDA-MB-231 [7]): 92%
GI50 (IGROV-1; read-out: GI50): 5.12 µM
CC50 (IGROV-1; [13]): > 100 µM
TGI (IGROV-1; read-out: TGI): > 100 µM
GI50 (IGROV-1; read-out: pGI50 (converted)): 5.13 µM
CC50 (IGROV-1; [14]): > 100 µM
TGI (IGROV-1; read-out: pTGI (converted)): > 100 µM
growth at 100 µM (SF-295 [8]): -81%
growth at 1 µM (OVCAR-3): 99%
growth at 1 µM (NCI-H226): 90%
growth at 0.01 µM (Malme-3M [9]): 58%
growth at 100 µM (SR): -25%
growth at 100 µM (OVCAR-5 [10]): -47%
GI50 (OVCAR-5 [11]; read-out: GI50): 14.8 µM
CC50 (OVCAR-5 [11]; [13]): > 100 µM
TGI (OVCAR-5 [11]; read-out: TGI): 39.6 µM
GI50 (OVCAR-5 [11]; read-out: pGI50 (converted)): 14.8 µM
CC50 (OVCAR-5 [11]; [14]): > 100 µM
TGI (OVCAR-5 [11]; read-out: pTGI (converted)): 39.8 µM
growth at 0.01 µM (MDA-MB-231 [12]): 100%
growth at 100 µM (HCT-15): -54%
growth at 1 µM (NCI-H522): 40%
